Structures are written as SMILES.

In the test the test system is Phakopsora pachyrhizi. The experiment in a line: Fungicidal activity: Asian soybean rust (PHAKPA), soybean seedlings. To be noted: High volume, 25 ppm, 3 Day Curative. In kind it is in vivo. Here is the method:
Example C: Evaluation of Fungicidal Activity: Asian Soybean Rust (Phakopsora pachyrhizi; Bayer Code […]) Technical grades of materials were dissolved in acetone, which were then mixed with nine volumes of water containing 0.011% Tween 20. The fungicide solutions were applied onto soybean seedlings using an automated booth sprayer to run-off. All sprayed plants were allowed to air dry prior to further handling. Soybean plants (variety Williams 82) were grown in soil-less Metro mix, with one plant per pot. Two week old seedlings were used for testing. Plants were inoculated either 3 days prior to or 1 day after fungicide treatments. Plants were incubated for 24 h in a dark dew room at 22° C. and 100% relative humidity then transferred to a growth room at 23° C. for disease to develop. Disease severity was assessed on the sprayed leaves.
Turning to `COc1ccnc(C(=O)N[C@@H](C)C(=O)O[C@@H](C)[C@@H](c2ccc(F)cc2C)C(C)C)c1OC(C)=O` [compound 178], the “PHAKPA disease control, 3DC” value is “B (≤80)”.

For `COc1ccnc(C(=O)N[C@@H](C)C(=O)O[C@@H](C)[C@@H](c2ccc(C)cc2F)C(C)C)c1OC(C)=O` [compound 369], the “PHAKPA disease control, 3DC” value is listed as “B (≤80)”.

Regarding `COc1ccnc(C(=O)N[C@@H](C)C(=O)O[C@H](C)[C@H](c2ccc(F)cc2C)C(C)C)c1OC(C)=O` [compound 192], the “PHAKPA disease control, 3DC” value is “B (≤80)”.

As to `COc1ccnc(C(=O)N[C@@H](C)C(=O)O[C@@H](C)[C@H](c2ccc(C)cc2F)C(C)C)c1OC(C)=O` [compound 366], the “PHAKPA disease control, 3DC” value is reported as “B (≤80)”.
